# Results taken from patent US10882866B1, “Spiro[3H-indole-3,2′-pyrrolidin]-2(1H)-one compounds and derivatives as MDM2-P53 inhibitors” (Boehringer Ingelheim International GmbH, priority 2015, dated 2021).
# Columns and labels:
# [1] = target: GST-MDM2 protein (aa 23-117) / biotinylated p53 wt peptide (p53-MDM2 interaction) (Homo sapiens (Human), UniProt Q00987); assay: Mdm2-p53 Inhibition AlphaScreen; format: binding; conditions: 20 nM GST-MDM2 (aa 23-117), 20 nM biotinylated p53 wt peptide
# Method: Mdm2-p53 Inhibition AlphaScreen
# 15 μL of compound in 20% DMSO (serial pre-dilutions of compound are done in 100% DMSO) is pipetted to the wells of a white OptiPlate-96 (PerkinElmer). A mix consisting of 20 nM GST-MDM2 protein (aa 23-117) and 20 nM biotinylated p53 wt peptide (encompassing aa 16-27 of wt human p53, amino acid sequence […]-Ttds-Lys-Biotin, molecular weight 2132.56 g/mol) is prepared in assay buffer (50 mM Tris/HCl pH 7.2; 120 mM NaCl; 0.1% bovine serum albumin (BSA); 5 mM dithiothreitol (DTT); 1 mM ethylenediaminetetraacetic acid (EDTA); 0.01% Tween 20). 30 μL of the mix is added to the compound dilutions and incubated for 15 min at rt while gently shaking the plate at 300 rounds per minute (rpm). Subsequently, 15 μL of premixed AlphaLISA Glutathione Acceptor Beads and AlphaScreen Streptavidin Donor Beads from PerkinElmer (in assay buffer at a concentration of 10 μg/mL each) are added and the samples are incubated for 30 min at rt in the dark (shaking 300 rpm). Afterwards, the signal is measured in a PerkinElmer Envision HTS Multilabel Reader using the AlphaScreen protocol from PerkinElmer.
# Each plate contains negative controls where biotinylated p53-peptide and GST-MDM2 are left out and replaced by assay buffer. Negative control values are entered as low basis value when using the software GraphPad Prism for calculations. […]
# [2] = system: human prostate tumor xenograft models harboring p53 wild-type; conditions: cited from earlier work
# [3] = system: human acute myeloid leukemia (AML) xenograft models harboring p53 wild-type; conditions: cited from earlier work
# Sequence of GST-MDM2 protein (aa 23-117) / biotinylated p53 wt peptide (p53-MDM2 interaction) (Q00987 23-117): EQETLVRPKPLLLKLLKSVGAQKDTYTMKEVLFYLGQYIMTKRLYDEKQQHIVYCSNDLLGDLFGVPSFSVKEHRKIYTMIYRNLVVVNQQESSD
SMILES,IC50 [1],antiproliferative and proapoptotic activity [2],antiproliferative and proapoptotic activity [3]
COc1cc2c(cc1C(N)=O)nc1n2CC[C@H]2[C@@H]1[C@H](c1cccc(Cl)c1F)[C@]1(C(=O)Nc3cc(Cl)ccc31)N2CC1CC1 [Ib-234],2 nM,–,–
CCOc1cc(C(C)(C)C)ccc1C1=N[C@@](C)(c2ccc(Cl)cc2)[C@@](C)(c2ccc(Cl)cc2)N1C(=O)N1CCN(CCCS(C)(=O)=O)CC1 [RG7112],–,antiproliferative and proapoptotic activity of RG7112 has been observed,antiproliferative and proapoptotic activity of RG7112 has been observed
